In patent publication US12187684B2, “Benzimidazole derivatives as modulators of retinoid-related orphan receptor gamma (RORγ) and pharmaceutical use thereof” (Jiangsu Hengrui Medicine Co., Ltd., priority 2018, dated 2025):

Target: T1, RORγ LBD-GST tagged (Homo sapiens, UniProt P51449)
T1 construct: RORγ LBD-GST tagged (Cat No. RORC-114H, Creative Biomart); purchased Creative Biomart RORC-114H
T1 sequence (P51449 269-508 limits assumed): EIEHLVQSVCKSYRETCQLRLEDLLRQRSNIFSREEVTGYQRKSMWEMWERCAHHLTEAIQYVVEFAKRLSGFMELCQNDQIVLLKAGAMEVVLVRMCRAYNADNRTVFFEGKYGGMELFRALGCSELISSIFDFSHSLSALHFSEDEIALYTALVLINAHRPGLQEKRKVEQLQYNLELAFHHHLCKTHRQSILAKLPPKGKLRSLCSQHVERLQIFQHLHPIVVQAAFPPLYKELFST
Assay: LanthaScreen TR-FRET RORγ coactivator assay
Assay type: biochemical
Conditions: Fluorescein-D22 coactivator peptide, 1 hour room temperature
Text: LanthaScreen TR-FRET Retinoid-Related Orphan Receptor Gamma (RORγ) Coactivator Assay Materials and Reagents • 1. […] Fluorescein-D22 coactivator peptide (Cat No. PV4386, Invitrogen) • 3. LanthaScreen™ Tb anti-GST antibody (Cat No. PV3550, Invitrogen) • 4. TR-FRET coregulatory buffer D (Cat No, PV4420, Invitrogen) • 5. DTT (Cat No. P2325, Fisher) • 6. […] Tecan Infinite M1000 plate reader (Tecan) Experimental Procedure Prepare Complete TR-FRET Coregulator Buffer D by adding 1 M DTT to TR-FRET Coregulator Buffer D to the final concentration of 5 mM DTT. Make compound dilution in Complete TR-FRET Coregulator Buffer D. Highest dose is 3 μM, 7-folder dilution for total 7 doses. Add 10 μL to each well of a 384-well plate. For the negative and positive controls, add 10 μL of Complete TR-FRET Coregulator Buffer D. Prepare RORγ LBD using Complete TR-FRET Coregulator Buffer D. The final concentration of RORγ LBD is 25 ng/reaction. Add 5 μL RORγ LBD to all the wells of the 384-well assay plate except negative wells which adding 5 μL Complete TR-FRET Coregulator Buffer D. Prepare a solution containing 0.6 μM Fluorescein-D22 and 8 nM Tb anti-GST antibody using Complete TR-FRET Coregulator Buffer D. Add 5 μL to all wells of the 384-well assay plate. Briefly and gently mix the 384-well plate on a plate shaker and incubate at room temperature protected from light for 1 hour. The plate may be sealed with a cover to minimize evaporation. Read the plate at wavelengths of 520 nm and 495 nm on Tecan Infinite M1000. IC50 values were calculated using GraphPad Prism by plotting the logarithm of compounds concentration versus percent inhibition.

Row | IC50 [µM] | SMILES
1 | 0.535 | CS(=O)(=O)c1ccc(Cc2nc3c(Cl)c(-c4ccccc4C(F)(F)F)c(Cl)cc3[nH]2)cc1 [Example 45, 4,6-dichloro-2-(4-(methylsulfonyl)benzyl)-5-(2-(trifluoromethyl)phenyl)-1H-benzo[d]imidazole]
2 | 0.284 | CCCS(=O)(=O)c1ccc(Cc2nc3c(Cl)c(-c4ccccc4OC(F)(F)F)c(Cl)cc3[nH]2)cc1 [Example 50, 4,6-dichloro-2-(4-(propylsulfonyl)benzyl)-5-(2-(trifluoromethoxy)phenyl)-1H-benzo[d]imidazole]
3 | 0.646 | CCCS(=O)(=O)c1ccc(C(CO)c2nc3c(Cl)c(-c4ccccc4OC(F)(F)F)c(Cl)cc3[nH]2)cc1 (centres unmarked) [Example 51, 2-(4,6-dichloro-5-(2-(trifluoromethoxy)phenyl)-1H-benzo[d]imidazol-2-yl)-2-(4-(propylsulfonyl)phenyl)ethanol]
4 | 0.135 | CCCS(=O)(=O)c1ccc(C(O)c2nc3c(Cl)c(-c4ccccc4OC(F)(F)F)c(Cl)cc3[nH]2)cc1 (centres unmarked) [Example 52, (4,6-dichloro-5-(2-(trifluoromethoxy)phenyl)-1H-benzo[d]imidazol-2-yl)(4-(propylsulfonyl)phenyl)methanol]
5 | 0.575 | COCCS(=O)(=O)c1ccc(Cc2nc3c(Cl)c(-c4ccccc4OC(F)(F)F)c(Cl)cc3[nH]2)cc1 [Example 53, 4,6-dichloro-2-(4-((2-methoxyethyl)sulfonyl)benzyl)-5-(2-(trifluoromethoxy)phenyl)-1H-benzo[d]imidazole]
6 | 0.367 | COCCS(=O)(=O)c1ccc(C(CO)c2nc3c(Cl)c(-c4ccccc4OC(F)(F)F)c(Cl)cc3[nH]2)cc1 (centres unmarked) [Example 54, 2-(4,6-dichloro-5-(2-(trifluoromethoxy)phenyl)-1H-benzo[d]imidazol-2-yl)-2-(4-((2-methoxyethyl)sulfonyl)phenyl)ethanol]
7 | 0.194 | COCCS(=O)(=O)c1ccc(C(O)c2nc3c(Cl)c(-c4ccccc4OC(F)(F)F)c(Cl)cc3[nH]2)cc1 (centres unmarked) [Example 55, (4,6-dichloro-5-(2-(trifluoromethoxy)phenyl)-1H-benzo[d]imidazol-2-yl)(4-((2-methoxyethyl)sulfonyl)phenyl)methanol]
8 | 0.879 | CS(=O)(=O)c1ccc(Cc2nc3c(Cl)c(-c4ccccc4OC(F)(F)F)c(Cl)cc3[nH]2)cc1 [Example 56, 4,6-dichloro-2-(4-(methylsulfonyl)benzyl)-5-(2-(trifluoromethoxy)phenyl)-1H-benzo[d]imidazole]
9 | 0.433 | O=S(=O)(CC(F)(F)F)c1ccc(Cc2nc3c(Cl)c(-c4ccccc4OC(F)(F)F)c(Cl)cc3[nH]2)cc1 [Example 59, 4,6-dichloro-2-(4-((2,2,2-trifluoroethyl)sulfonyl)benzyl)-5-(2-(trifluoromethoxy)phenyl)-1H-benzo[d]imidazole]
10 | 0.509 | O=S(=O)(CCF)c1ccc(Cc2nc3c(Cl)c(-c4ccccc4OC(F)(F)F)c(Cl)cc3[nH]2)cc1 [Example 61, 4,6-dichloro-2-(4-((2-fluoroethyl)sulfonyl)benzyl)-5-(2-(trifluoromethoxy)phenyl)-1H-benzo[d]imidazole]

Second part, the compound before the results:

Row | SMILES | IC50 [µM]
11 | CCS(=O)(=O)c1ccc(C(NC(C)=O)c2nc3c(Cl)c(-c4ccccc4OC(F)(F)F)c(Cl)cc3[nH]2)cc1 (centres unmarked) [Example 44, N-((4,6-dichloro-5-(2-(trifluoromethoxy)phenyl)-1H-benzo[d]imidazol-2-yl)(4-(ethylsulfonyl)phenyl)methyl)acetamide] | 0.026
12 | CS(=O)(=O)c1ccc(Cc2nc3c(Cl)c(-c4ccccc4OC(F)F)c(Cl)cc3[nH]2)cc1 [Example 47, 4,6-dichloro-5-(2-(difluoromethoxy)phenyl)-2-(4-(methylsulfonyl)benzyl)-1H-benzo[d]imidazole] | 0.196
13 | CS(=O)(=O)c1ccc(C(CO)c2nc3c(Cl)c(-c4ccccc4OC(F)F)c(Cl)cc3[nH]2)cc1 (centres unmarked) [Example 48, 2-(4,6-dichloro-5-(2-(difluoromethoxy)phenyl)-1H-benzo[d]imidazol-2-yl)-2-(4-(methylsulfonyl)phenyl)ethanol] | 0.445
14 | CS(=O)(=O)c1ccc(C(O)c2nc3c(Cl)c(-c4ccccc4OC(F)F)c(Cl)cc3[nH]2)cc1 (centres unmarked) [Example 49, (4,6-dichloro-5-(2-(difluoromethoxy)phenyl)-1H-benzo[d]imidazol-2-yl)(4-(methylsulfonyl)phenyl)methanol] | 0.255
15 | CS(=O)(=O)c1ccc(C(CO)c2nc3c(Cl)c(-c4ccccc4OC(F)(F)F)c(Cl)cc3[nH]2)cc1 (centres unmarked) [Example 57, 2-(4,6-dichloro-5-(2-(trifluoromethoxy)phenyl)-1H-benzo[d]imidazol-2-yl)-2-(4-(methylsulfonyl)phenyl)ethanol] | 0.187
16 | CS(=O)(=O)c1ccc(C(O)c2nc3c(Cl)c(-c4ccccc4OC(F)(F)F)c(Cl)cc3[nH]2)cc1 (centres unmarked) [Example 58, (4,6-dichloro-5-(2-(trifluoromethoxy)phenyl)-1H-benzo[d]imidazol-2-yl)(4-(methylsulfonyl)phenyl)methanol] | 0.266
17 | O=S(=O)(CC(F)(F)F)c1ccc(C(CO)c2nc3c(Cl)c(-c4ccccc4OC(F)(F)F)c(Cl)cc3[nH]2)cc1 (centres unmarked) [Example 60, 2-(4,6-dichloro-5-(2-(trifluoromethoxy)phenyl)-1H-benzo[d]imidazol-2-yl)-2-(4-((2,2,2-trifluoroethyl)sulfonyl)phenyl)ethanol] | 0.409
18 | O=S(=O)(CCF)c1ccc(C(CO)c2nc3c(Cl)c(-c4ccccc4OC(F)(F)F)c(Cl)cc3[nH]2)cc1 (centres unmarked) [Example 62, 2-(4,6-dichloro-5-(2-(trifluoromethoxy)phenyl)-1H-benzo[d]imidazol-2-yl)-2-(4-((2-fluoroethyl)sulfonyl)phenyl)ethanol] | 0.154
19 | O=S(=O)(CCF)c1ccc(Cc2nc3c(Cl)c(-c4ccccc4C(F)(F)F)c(Cl)cc3[nH]2)cc1 [Example 63, 4,6-dichloro-2-(4-((2-fluoroethyl)sulfonyl)benzyl)-5-(2-(trifluoromethyl)phenyl)-1H-benzo[d]imidazole] | 0.592
20 | O=S(=O)(CCF)c1ccc(C(CO)c2nc3c(Cl)c(-c4ccccc4C(F)(F)F)c(Cl)cc3[nH]2)cc1 (centres unmarked) [Example 64, 2-(4,6-dichloro-5-(2-(trifluoromethyl)phenyl)-1H-benzo[d]imidazol-2-yl)-2-(4-((2-fluoroethyl)sulfonyl)phenyl)ethanol] | 0.465
21 | O=S(=O)(c1ccc(Cc2nc3c(Cl)c(-c4ccccc4C(F)(F)F)c(Cl)cc3[nH]2)cc1)C(F)(F)F [Example 65, 4,6-dichloro-5-(2-(trifluoromethyl)phenyl)-2-(4-((trifluoromethyl)sulfonyl)benzyl)-1H-benzo[d]imidazole] | 0.015
22 | O=S(=O)(CC1CC1)c1ccc(C(O)c2nc3c(Cl)c(-c4ccccc4C(F)(F)F)c(Cl)cc3[nH]2)cc1 (centres unmarked) [Example 71, (4-((cyclopropylmethyl)sulfonyl)phenyl)(4,6-dichloro-5-(2-(trifluoromethyl)phenyl)-1H-benzo[d]imidazol-2-yl)methanol] | 0.004
23 | O=S(=O)(CC1CC1)c1ccc(C(CO)c2nc3c(Cl)c(-c4ccccc4F)c(Cl)cc3[nH]2)cc1 (centres unmarked) [Example 74, 2-(4-((cyclopropylmethyl)sulfonyl)phenyl)-2-(4,6-dichloro-5-(2-fluorophenyl)-1H-benzo[d]imidazol-2-yl)ethanol] | 0.187
